{"source": "patent US20210037824A1", "about": "“HERBICIDAL MIXTURES” (BASF SE, priority 2018, published 2021)", "settings_in_all_cases": "scale 0 to 100", "key": {"[1]": {"tested_on": "ALOMY", "assay": "greenhouse pre-emergence herbicidal activity, ALOMY", "type": "in vivo, Alopercurus myosuroides", "text": "(§1) The seeds of the test plants were sown separately for each species. For the pre-emergence treatment, the active compounds, suspended or emulsified in water, were applied 1 day after sowing by means of finely distributing nozzles. The containers were irrigated gently to promote germination and growth and subsequently covered with transparent plastic hoods until the plants had rooted. This cover caused uniform germination of the test plants unless this was adversely affected by the active compounds. Depending on the species, the plants were kept at 10-25° C. and 20-35° C., respectively. The test period extended over 2 to 4 weeks. During this time, the plants were tended and their response to the individual treatments was evaluated. Evaluation was carried out using a scale from 0 to 100. 100 means no emergence of the plants, or complete destruction of at least the above-ground parts, and 0 means no damage or normal course of growth. A good herbicidal activity is given at values of at least 70, and very good herbicidal activity is given at values of at least 85. […] 22ff., the value E, which is expected if the activity of the individual active compounds is only additive, was calculated. […] If the value found experimentally is higher than the value E calculated according to Colby, a synergistic effect is present."}, "[2]": {"tested_on": "GERDI", "assay": "greenhouse pre-emergence herbicidal activity, GERDI", "type": "in vivo, Geranium dissecium", "text": "(§2) The seeds of the test plants were sown separately for each species. For the pre-emergence treatment, the active compounds, suspended or emulsified in water, were applied 1 day after sowing by means of finely distributing nozzles. The containers were irrigated gently to promote germination and growth and subsequently covered with transparent plastic hoods until the plants had rooted. This cover caused uniform germination of the test plants unless this was adversely affected by the active compounds. Depending on the species, the plants were kept at 10-25° C. and 20-35° C., respectively. The test period extended over 2 to 4 weeks. During this time, the plants were tended and their response to the individual treatments was evaluated. Evaluation was carried out using a scale from 0 to 100. 100 means no emergence of the plants, or complete destruction of at least the above-ground parts, and 0 means no damage or normal course of growth. A good herbicidal activity is given at values of at least 70, and very good herbicidal activity is given at values of at least 85. Trifludimoxazin was formulated as a 500 g/I suspension concentrate, the compound of formula (I) was formulated as a 50 g/I emulsifiable concentrate and, with addition of the amount of solvent system, introduced into the spray liquor used for applying the active compound. In the examples, the solvent used was water. In the examples below, using the method of S. R. Colby (1967) “Calculating synergistic and antagonistic responses of herbicide combinations”, Weeds 15, p. 22ff., the value E, which is expected if the activity of the individual active compounds is only additive, was calculated. E=X+Y−(X·Y/100) • where • X=percent activity using active compound A at an application rate a; • Y=percent activity using active compound B at an application rate b; • E=expected activity (in %) by A+B at application rates a+b. If the value found experimentally is higher than the value E calculated according to Colby, a synergistic effect is present."}, "[3]": {"tested_on": "AVEFA", "assay": "greenhouse pre-emergence herbicidal activity, AVEFA", "type": "in vivo, Avena fatua", "text": "as §1"}, "[4]": {"tested_on": "MATIN", "assay": "greenhouse pre-emergence herbicidal activity, MATIN", "type": "in vivo, Matricaria inodora", "text": "as §1"}, "[5]": {"tested_on": "LAMPU", "assay": "greenhouse pre-emergence herbicidal activity, LAMPU", "type": "in vivo, Lamium purpureum", "text": "as §1"}, "[6]": {"tested_on": "LOLMU", "assay": "greenhouse pre-emergence herbicidal activity, LOLMU", "type": "in vivo, Lolium multiflorum", "text": "as §1"}, "[7]": {"tested_on": "IPOHE", "assay": "greenhouse post-emergence herbicidal activity, IPOHE", "type": "in vivo, Ipomoea hederacea", "method": "(§3) The seeds of the test plants were sown separately for each species. For the post-emergence treatment, the test plants were grown to a plant height of from 3 to 15 cm, depending on the plant habit, and only then treated with the active compounds which had been suspended or emulsified in water. To this end, the test plants were either sown directly, and grown in the same containers, or they were first grown separately as seedlings and transplanted into the test containers one week prior to treatment. Depending on the species, the plants were kept at 10-25° C. and 20-35° C., respectively. The test period extended over 2 to 4 weeks. During this time, the plants were tended and their response to the individual treatments was evaluated. Evaluation was carried out using a scale from 0 to 100. 100 means no emergence of the plants, or complete destruction of at least the above-ground parts, and 0 means no damage or normal course of growth. A good herbicidal activity is given at values of at least 70, and very good herbicidal activity is given at values of at least 85. […] 22ff., the value E, which is expected if the activity of the individual active compounds is only additive, was calculated. […] If the value found experimentally is higher than the value E calculated according to Colby, a synergistic effect is present."}, "[8]": {"tested_on": "STEME", "assay": "greenhouse post-emergence herbicidal activity, STEME", "type": "in vivo, Stellaria media", "method": "as §3"}, "[9]": {"tested_on": "POLCO", "assay": "greenhouse pre-emergence herbicidal activity, POLCO", "type": "in vivo, Polygonum convolvulus", "text": "as §2"}, "[10]": {"tested_on": "STEME", "assay": "greenhouse pre-emergence herbicidal activity, STEME", "type": "in vivo, Stellaria media", "text": "as §2"}, "[11]": {"tested_on": "GALAP", "assay": "greenhouse pre-emergence herbicidal activity, GALAP", "type": "in vivo, Galium aparine", "text": "as §1"}, "[12]": {"settings": "Example 1, compound (I) 15.625 g/ha a.s. alone"}, "[13]": {"settings": "Example 3, compound (I) 31.25 g/ha a.s. alone"}, "[14]": {"settings": "Example 2, compound (I) 62.5 g/ha a.s. alone"}, "[15]": {"settings": "Example 6, compound (I) 15.63 g/ha a.s. alone"}, "[16]": {"settings": "Example 7, compound (I) 15.63 g/ha a.s. alone"}, "[17]": {"settings": "Example 8, compound (I) 7.81 g/ha a.s. alone"}, "[18]": {"settings": "Example 1, trifludimoxazin 9 g/ha a.s. alone"}, "[19]": {"settings": "Example 3, trifludimoxazin 4.5 g/ha a.s. alone"}, "[20]": {"settings": "Example 2, trifludimoxazin 4.5 g/ha a.s. alone"}, "[21]": {"settings": "Example 6, trifludimoxazin 0.5 g/ha a.s. alone"}, "[22]": {"settings": "Example 7, trifludimoxazin 0.25 g/ha a.s. alone"}, "[23]": {"settings": "Example 8, trifludimoxazin 0.25 g/ha a.s. alone"}}}
{"smiles": "CC1(C)CON(Cc2ccc(Cl)cc2Cl)C1=O", "note": "[(I), 2-(2,4-dichlorophenyl)methyl-4,4-dimethyl-3-isoxazolidone]", "values": [{"measurement": "herbicidal activity against ALOMY found", "setting": "[1]; [12]", "value": 0, "unit": "%"}, {"measurement": "herbicidal activity against GERDI found", "setting": "[2]; [12]", "value": 20, "unit": "%"}, {"measurement": "herbicidal activity against GERDI found", "setting": "[2]; [13]", "value": 35, "unit": "%"}, {"measurement": "herbicidal activity against GERDI found", "setting": "[2]; Example 5, compound (I) 15.625 g/ha a.s. alone", "value": 20, "unit": "%"}, {"measurement": "herbicidal activity against AVEFA found", "setting": "[3]; [14]", "value": 0, "unit": "%"}, {"measurement": "herbicidal activity against MATIN found", "setting": "[4]; [14]", "value": 50, "unit": "%"}, {"measurement": "herbicidal activity against LAMPU found", "setting": "[5]; [13]", "value": 0, "unit": "%"}, {"measurement": "herbicidal activity against LOLMU found", "setting": "[6]; Example 4, compound (I) 125 g/ha a.s. alone", "value": 65, "unit": "%"}, {"measurement": "herbicidal activity against IPOHE found", "setting": "[7]; [15]", "value": 53, "unit": "%"}, {"measurement": "herbicidal activity against STEME found", "setting": "[8]; [15]", "value": 83, "unit": "%"}, {"measurement": "herbicidal activity against POLCO found", "setting": "[9]; [16]", "value": 60, "unit": "%"}, {"measurement": "herbicidal activity against POLCO found", "setting": "[9]; [17]", "value": 50, "unit": "%"}, {"measurement": "herbicidal activity against POLCO found", "setting": "[9]; Example 10, compound (I) 62.5 g/ha a.s. alone", "value": 73, "unit": "%"}, {"measurement": "herbicidal activity against STEME found", "setting": "[10]; [16]", "value": 83, "unit": "%"}, {"measurement": "herbicidal activity against STEME found", "setting": "[10]; [17]", "value": 85, "unit": "%"}, {"measurement": "herbicidal activity against GALAP found", "setting": "[11]; Example 9, compound (I) 15.63 g/ha a.s. alone", "value": 73, "unit": "%"}]}
{"smiles": "C#CCN1C(=O)C(F)(F)Oc2cc(F)c(-n3c(=O)n(C)c(=S)n(C)c3=O)cc21", "note": "[trifludimoxazin, 1,5-dimethyl-6-thioxo-3-(2,2,7-trifluoro-3-oxo-4-(prop-2-ynyl)-3,4-dihydro-2H-benzo[b][1,4]oxazin-6-yl)-1,3,5-triazinane-2,4-dione]", "values": [{"measurement": "herbicidal activity against ALOMY found", "setting": "[1]; [18]", "value": 60, "unit": "%"}, {"measurement": "herbicidal activity against GERDI found", "setting": "[2]; [18]", "value": 75, "unit": "%"}, {"measurement": "herbicidal activity against GERDI found", "setting": "[2]; [19]", "value": 0, "unit": "%"}, {"measurement": "herbicidal activity against GERDI found", "setting": "[2]; Example 5, trifludimoxazin 4.5 g/ha a.s. alone", "value": 0, "unit": "%"}, {"measurement": "herbicidal activity against AVEFA found", "setting": "[3]; [20]", "value": 35, "unit": "%"}, {"measurement": "herbicidal activity against MATIN found", "setting": "[4]; [20]", "value": 90, "unit": "%"}, {"measurement": "herbicidal activity against LAMPU found", "setting": "[5]; [19]", "value": 98, "unit": "%"}, {"measurement": "herbicidal activity against LOLMU found", "setting": "[6]; Example 4, trifludimoxazin 9 g/ha a.s. alone", "value": 65, "unit": "%"}, {"measurement": "herbicidal activity against IPOHE found", "setting": "[7]; [21]", "value": 97, "unit": "%"}, {"measurement": "herbicidal activity against STEME found", "setting": "[8]; [21]", "value": 90, "unit": "%"}, {"measurement": "herbicidal activity against POLCO found", "setting": "[9]; [22]", "value": 88, "unit": "%"}, {"measurement": "herbicidal activity against POLCO found", "setting": "[9]; [23]", "value": 88, "unit": "%"}, {"measurement": "herbicidal activity against POLCO found", "setting": "[9]; Example 10, trifludimoxazin 0.25 g/ha a.s. alone", "value": 88, "unit": "%"}, {"measurement": "herbicidal activity against STEME found", "setting": "[10]; [22]", "value": 80, "unit": "%"}, {"measurement": "herbicidal activity against STEME found", "setting": "[10]; [23]", "value": 80, "unit": "%"}, {"measurement": "herbicidal activity against GALAP found", "setting": "[11]; Example 9, trifludimoxazin 2 g/ha a.s. alone", "value": 93, "unit": "%"}]}
